Legend:
[1] = phase II trial, cited from earlier work
[2] = target: T1, human NK1 receptor (Homo sapiens, UniProt P25103); assay: NK1 receptor binding assay, [3H]substance P displacement; conditions: human NK1 receptors in CHO cells, [3H]substance P 0.6 nM
T1 construct: expressed in transfected cells; host or cells: CHO cells (Semliki virus expression system), membrane suspension

[3] = target: T2, Recombinant human NK3 (hNK3) receptor (Homo sapiens, UniProt P29371); assay: NK3 receptor binding assay, [3H]SR142801 displacement; conditions: hNK3 receptor membranes, [3H]SR142801 0.3 nM
T2 construct: expressed in transfected cells; membrane preparations of the recombinant receptor
T2 sequence (P29371 1-465): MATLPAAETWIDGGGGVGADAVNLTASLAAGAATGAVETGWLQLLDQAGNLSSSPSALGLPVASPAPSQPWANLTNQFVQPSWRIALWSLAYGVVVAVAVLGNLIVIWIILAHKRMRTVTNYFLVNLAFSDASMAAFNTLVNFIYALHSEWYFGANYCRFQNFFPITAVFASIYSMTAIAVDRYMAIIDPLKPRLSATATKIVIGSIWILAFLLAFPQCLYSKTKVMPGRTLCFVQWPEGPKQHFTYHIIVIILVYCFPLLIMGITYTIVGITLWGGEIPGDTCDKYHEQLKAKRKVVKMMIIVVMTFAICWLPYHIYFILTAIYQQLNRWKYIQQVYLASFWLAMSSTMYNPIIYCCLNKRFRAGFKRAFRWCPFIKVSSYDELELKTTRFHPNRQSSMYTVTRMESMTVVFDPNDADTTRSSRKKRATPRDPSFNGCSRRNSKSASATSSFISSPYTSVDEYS
Experimental: Recombinant human NK3 (hNK3) receptor affinity was determined in a 96 well plate assay, using [^3H]SR142801 (final concentration 0.3 nM) to radiolabel the hNK3 receptor in the presence of 10 concentrations of competing compound or buffer. Non specific binding was determined using 10 μM SB222200. Assay buffer consisted of Tris-HCl (50 mM, pH 7.4), BSA (0.1%), MnCl2 (4 mM) and phosphoramidon (1 μM). Membrane preparations of hNK3 receptors (approximately 2.5 μg/well in a 96 well plate) were used to initiate the incubation for 90 min at room temperature. This assay was terminated by rapid filtration under vacuum through GF/C filters, presoaked for 90 min with PEI (0.3%), with 3×0.5 ml washes of ice-cold Tris buffer (50 mM, pH 7.4) containing 0.1% BSA. The radioactivity retained on the filters was measured by scintillation counting. All assays were performed in duplicate in at least two separate experiments.

T1 sequence (P25103 whole entry): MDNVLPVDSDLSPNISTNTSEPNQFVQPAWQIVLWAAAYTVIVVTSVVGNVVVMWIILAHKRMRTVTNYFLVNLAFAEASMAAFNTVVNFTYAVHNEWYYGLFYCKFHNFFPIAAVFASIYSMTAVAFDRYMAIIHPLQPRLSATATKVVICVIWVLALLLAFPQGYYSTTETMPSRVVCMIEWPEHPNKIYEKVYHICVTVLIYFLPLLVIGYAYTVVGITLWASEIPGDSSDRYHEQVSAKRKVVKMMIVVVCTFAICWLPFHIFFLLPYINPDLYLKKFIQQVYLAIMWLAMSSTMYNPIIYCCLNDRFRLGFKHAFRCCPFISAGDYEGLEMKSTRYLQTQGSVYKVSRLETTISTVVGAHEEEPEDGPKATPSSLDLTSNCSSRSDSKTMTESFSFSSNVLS

SMILES | Ki [2] [nM] | Ki [3] [nM] | activity on positive symptoms of schizophrenia ([1]; altered behaviour, delusion, hallucinations, extreme emotions, excited motor activity, incoherent speech) | activity in the treatment of negative symptoms of schizophrenia ([1]; depression, anhedonia, social isolation or memory and attention deficits)
CC(=O)N(C)C1(c2ccccc2)CCN(CCC[C@]2(c3ccc(Cl)c(Cl)c3)CCCN(C(=O)c3ccccc3)C2)CC1 [SR 142,801, Osanetant] | – | – | active | inactive
CCn1ncc2c(-c3ccc(F)cc3F)c(N(C)C(=O)C(C)(C)c3cc(C(F)(F)F)cc(C(F)(F)F)c3)cnc21 [Example 8, 2-(3,5-Bis-trifluoromethyl-phenyl)-N-[4-(2,4-difluoro-phenyl)-1-ethyl-1H-pyrazolo[3,4-b]pyridin-5-yl]-N-methyl-isobutyramide] | 1.7 | 483 | – | –
CCn1ncc2c(-c3ccc(OC)cc3C)c(N(C)C(=O)C(C)(C)c3cc(C(F)(F)F)cc(C(F)(F)F)c3)cnc21 [Example 16, 2-(3,5-Bis-trifluoromethyl-phenyl)-N-[1-ethyl-4-(4-methoxy-2-methyl-phenyl)-1H-pyrazolo[3,4-b]pyridin-5-yl]-N-methyl-isobutyramide] | 8.6 | 373 | – | –
CCn1ncc2c(-c3ccc(F)cc3C)c(N(C)C(=O)C(C)(C)c3cccc(C(F)(F)F)c3)cnc21 [Example 30, N-[1-Ethyl-4-(4-fluoro-2-methyl-phenyl)-1H-pyrazolo[3,4-b]pyridin-5-yl]-N-methyl-2-(3-trifluoromethyl-phenyl)-isobutyramide] | 12.4 | 875 | – | –
CCn1ncc2c(-c3cccc(F)c3Cl)c(N(C)C(=O)C(C)(C)c3cc(C(F)(F)F)cc(C(F)(F)F)c3)cnc21 [Example 14, 2-(3,5-Bis-trifluoromethyl-phenyl)-N-[4-(2-chloro-3-fluoro-phenyl)-1-ethyl-1H-pyrazolo[3,4-b]pyridin-5-yl]-N-methyl-isobutyramide] | 1.6 | 38.7 | – | –
CCn1ncc2c(-c3cccc(F)c3F)c(N(C)C(=O)C(C)(C)c3cc(C(F)(F)F)cc(C(F)(F)F)c3)cnc21 [Example 9, 22-(3,5-Bis-trifluoromethyl-phenyl)-N-[4-(2,3-difluoro-phenyl)-1-ethyl-1H-pyrazolo[3,4-b]pyridin-5-yl]-N-methyl-isobutyramide] | 10.2 | 779 | – | –
CCn1ncc2c(-c3cscc3C)c(N(C)C(=O)C(C)(C)c3cc(C(F)(F)F)cc(C(F)(F)F)c3)cnc21 [Example 21, 2-(3,5-Bis-trifluoromethyl-phenyl)-N-[1-ethyl-4-(4-methyl-thiophen-3-yl)-1H-pyrazolo[3,4-b]pyridin-5-yl]-N-methyl-isobutyramide] | 92 | 1.2 | – | –
CCn1ncc2c(-c3cc(CO)ccc3Cl)c(N(C)C(=O)C(C)(C)c3cc(C(F)(F)F)cc(C(F)(F)F)c3)cnc21 [Example 22, 2-(3,5-Bis-trifluoromethyl-phenyl)-N-[4-(2-chloro-5-hydroxymethyl-phenyl)-1-ethyl-1H-pyrazolo[3,4-b]pyridin-5-yl]-N-methyl-isobutyramide] | 2.5 | 4.8 | – | –
CCn1ncc2c(-c3ccccc3CO)c(N(C)C(=O)C(C)(C)c3cc(C(F)(F)F)cc(C(F)(F)F)c3)cnc21 [Example 20, 2-(3,5-Bis-trifluoromethyl-phenyl)-N-[1-ethyl-4-(2-hydroxymethyl-phenyl)-1H-pyrazolo[3,4-b]pyridin-5-yl]-N-methyl-isobutyramide] | 1.6 | 209 | – | –

Further molecules by falling Ki [2], results first:

Ki [2] [nM] | Ki [3] [nM] | SMILES | activity on positive symptoms of schizophrenia ([1]; altered behaviour, delusion, hallucinations, extreme emotions, excited motor activity, incoherent speech) | activity in the treatment of negative symptoms of schizophrenia ([1]; depression, anhedonia, social isolation or memory and attention deficits)
1.6 | 27.3 | Cc1cc(F)ccc1-c1c(N(C)C(=O)C(C)(C)c2cc(C(F)(F)F)cc(C(F)(F)F)c2)cnc2[nH]ncc12 [Example 28, 2-(3,5-Bis-trifluoromethyl-phenyl)-N-[4-(4-fluoro-2-methyl-phenyl)-1H-pyrazolo[3,4-b]pyridin-5-yl]-N-methyl-isobutyramide] | – | –
1.2 | 32.7 | CCn1ncc2c(-c3ccccc3C)c(N(C)C(=O)C(C)(C)c3cc(C(F)(F)F)cc(C(F)(F)F)c3)cnc21 [Example 1, 2-(3,5-Bis-trifluoromethyl-phenyl)-N-(1-ethyl-4-o-tolyl-1H-pyrazolo[3,4-b]pyridin-5-yl)-N-methyl-isobutyramide] | – | –
1.2 | 12.9 | CC(=O)n1ncc2c(-c3ccc(F)cc3C)c(N(C)C(=O)C(C)(C)c3cc(C(F)(F)F)cc(C(F)(F)F)c3)cnc21 [Example 31, N-[1-Acetyl-4-(4-fluoro-2-methyl-phenyl)-1H-pyrazolo[3,4-b]pyridin-5-yl]-2-(3,5-bis-trifluoromethyl-phenyl)-N-methyl-isobutyramide] | – | –
0.9 | 6.8 | Cc1cc(F)ccc1-c1c(N(C)C(=O)C(C)(C)c2cc(C(F)(F)F)cc(C(F)(F)F)c2)cnc2c1cnn2CC(F)F [Example 6, 2-(3,5-Bis-trifluoromethyl-phenyl)-N-[1-(2,2-difluoro-ethyl)-4-(4-fluoro-2-methyl-phenyl)-1H-pyrazolo[3,4-b]pyridin-5-yl]-N-methyl-isobutyramide] | – | –
0.8 | 18.9 | Cc1cc(F)ccc1-c1c(N(C)C(=O)C(C)(C)c2cc(C(F)(F)F)cc(C(F)(F)F)c2)cnc2c1cnn2C [Example 7, 2-(3,5-Bis-trifluoromethyl-phenyl)-N-[4-(4-fluoro-2-methyl-phenyl)-1-methyl-1H-pyrazolo[3,4-b]pyridin-5-yl]-N-methyl-isobutyramide] | – | –
0.7 | 41.4 | CCn1ncc2c(-c3ccc(F)cc3OC)c(N(C)C(=O)C(C)(C)c3cc(C(F)(F)F)cc(C(F)(F)F)c3)cnc21 [Example 12, 2-(3,5-Bis-trifluoromethyl-phenyl)-N-[1-ethyl-4-(4-fluoro-2-methoxy-phenyl)-1H-pyrazolo[3,4-b]pyridin-5-yl]-N-methyl-isobutyramide] | – | –
0.6 | 15.1 | Cc1cc(F)ccc1-c1c(N(C)C(=O)C(C)(C)c2cc(C(F)(F)F)cc(C(F)(F)F)c2)cnc2c1cnn2S(C)(=O)=O [Example 36, 2-(3,5-Bis-trifluoromethyl-phenyl)-N-[4-(4-fluoro-2-methyl-phenyl)-1-methanesulfonyl-1H-pyrazolo[3,4-b]pyridin-5-yl]-N-methyl-isobutyramide] | – | –

From US8487102B2, “Pyrrazolopyridine compounds as dual NK1/NK3 receptor antagonists” (Hoffmann-La Roche Inc., priority 2010, dated 2013)
